Common to all, as to test: NCI anticancer screen, dose series, 48 h
Experiment [1] relates to M14 melanoma.
Experiment [2] has as its system HOP-62 NSCLC.
Experiment [3] has as its system NCI/ADR-RES ovarian.
Experiment [4] deals with OVCAR-4 ovarian.
Experiment [5] deals with HOP-92 NSCLC.
The subject of experiment [6] is SF-268 CNS.
Experiment [7] relates to NCI-H226 lung.
Experiment [8] concerns BT-549 breast.
The test system of experiment [9] is A549 NSCLC.
The subject of experiment [10] is HT29 colon.
The subject of experiment [11] is RXF 393 renal.
Experiment [12] deals with CCRF-CEM leukemia.

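In this assay, cells in 96-well plates receive the compound at five concentrations for 48 hours. Endpoints are linearly interpolated between the surrounding concentrations. At the GI50, growth is halved. TGI: concentration producing complete growth inhibition.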 A value given as a limit tells only on which side of the number the result lay.

Regarding `CCOC(=O)c1cc(-n2nnc3ccccc32)cn1C`, the TGI in [1], in experiment [2], in experiment [3], in experiment [4], in experiment [5] and in [6] was over 10 µM throughout. The TGI in experiment [7], in [8], in experiment [9], in [10], in [11] and in experiment [12] was over 10 µM throughout.
`COc1cc(C2C3=C(COC3=O)Oc3cc4c(cc32)OCO4)ccc1O` (stereo not given): the TGI in experiment [1] was over 100 µM; in [2], over 100 µM; in [3] it was over 100 µM; in [4], over 75.3 µM; in experiment [5] it was over 78.1 µM; in experiment [6], over 66.4 µM. The TGI in [7] is over 100 µM; in [8], over 100 µM; in [9] it was over 100 µM; in [10], 37.9 µM; in [11] it was over 100 µM; in experiment [12], over 100 µM.
Regarding `Cc1nc(SCC(=O)Nc2ccc(Cl)cc2)c2sc(=S)n(-c3ccccc3)c2n1`, the TGI in experiment [1], in [2], in [3], in [4], in experiment [5] and in experiment [6] was over 10 µM throughout. The TGI in experiment [7], in experiment [8], in experiment [9], in [10], in experiment [11] and in experiment [12] was over 10 µM each time.
`CCCCCCCCCCCCOP(=O)(O)OP(=O)(O)OCC1OC(n2ccc(N)nc2=O)CC1O` (stereo not given): the TGI in experiment [1], in experiment [2], in experiment [3], in experiment [4], in experiment [5] and in [6] was over 100 µM each time. Also, the TGI in experiment [7], in experiment [8], in experiment [9], in experiment [10], in [11] and in experiment [12] was over 100 µM throughout.
For `CCNC(=O)c1cc(Cl)ccc1NC(=O)C12CC3CC(CC(C3)C1)C2`, the TGI in experiment [1], in experiment [2], in experiment [3], in experiment [4], in [5] and in [6] was over 100 µM in each case. For the same molecule, the TGI in experiment [7] is over 100 µM; in [8], over 100 µM; in experiment [9], over 100 µM; in [10], 37.3 µM; in experiment [11], 43.9 µM; in experiment [12], over 100 µM.
Consider `N#CC1(C#N)NC(c2ccccc2)C(C#N)(C#N)NC1c1ccccc1` (stereo not given), for which the TGI in [1], in experiment [2], in experiment [3], in [4], in experiment [5] and in experiment [6] was over 100 µM in each case. Also, the TGI in experiment [7], in [8], in experiment [9], in experiment [10], in [11] and in experiment [12] was over 100 µM in each case.
On to `Cc1ccc(C2(c3ccc(Cl)cc3)c3ccccc3C3=NCCN32)cc1` (stereo not given), for which the TGI in [1] worked out at 16.2 µM; in experiment [2], 23.8 µM; in experiment [3], 24.9 µM; in experiment [4], 16.9 µM; in experiment [5], 18.1 µM; in experiment [6] it was 31.5 µM. The TGI in [7] was determined as 35.6 µM; in [8] it was 25.9 µM; in [9], 25.3 µM; in experiment [10], 14.6 µM; in [11], 10.9 µM; in experiment [12], 19.5 µM.
In the case of `CCCNC(=S)N/N=C(\C)c1ccc(S(=O)(=O)N(C)c2ccccc2)cc1`, the TGI was over 87.4 µM in [1]; 29 µM in experiment [2]; over 100 µM in [3]; over 100 µM in experiment [4]; over 100 µM in [5]; 41.8 µM in experiment [6]. The TGI in experiment [7] was over 75.6 µM; in experiment [8], over 100 µM; in [9], over 100 µM; in [10], over 100 µM; in [11], 38.2 µM; in experiment [12], over 31.6 µM.
Take `Cc1ccc(C(=O)Nc2ccc(CP(=O)(O)O)cc2)cc1NC(=O)c1cccc(N)c1`: the TGI in experiment [1], in experiment [2], in experiment [3], in [4], in experiment [5] and in experiment [6] was over 100 µM each time. Also, the TGI in experiment [7], in experiment [8], in [9], in [10], in [11] and in experiment [12] was over 100 µM each time.
In the case of `O=c1c2ccccc2[nH]n1Cc1ccccc1`, the TGI in experiment [1], in [2], in experiment [3], in experiment [4], in experiment [5] and in experiment [6] was over 100 µM throughout. Also, the TGI in experiment [7], in experiment [8], in experiment [9], in [10], in experiment [11] and in experiment [12] was over 100 µM throughout.
With `COc1ccc([N+](=O)[O-])c2c(NCCCN(C)C)ccnc12`, the TGI in [1] is 20.8 µM; in experiment [2], 15.6 µM; in [3], 42.2 µM; in [4], 3.69 µM; in [5], 4.38 µM; in experiment [6], 28.9 µM. The TGI was 30.2 µM in [7]; 6.45 µM in experiment [8]; 23.8 µM in [9]; over 32.4 µM in experiment [10]; 8.32 µM in [11]; 61.9 µM in experiment [12].
`NC(N)=NS(=O)(=O)c1ccc(N/N=C2/CCOC2=O)cc1`: the TGI in experiment [1] was over 100 µM; in [2], 77.8 µM; in experiment [3], over 100 µM; in [4], over 100 µM; in [5], over 100 µM; in [6] it was over 100 µM. Also, the TGI in experiment [7], in [8], in experiment [9], in experiment [10], in experiment [11] and in experiment [12] was over 100 µM throughout.
As to `CC1(C)[C@@H]2C[C@H]1[C@@H](Cc1cccc(C[C@H]3c4cc(-c5ccccn5)ncc4[C@H]4C[C@@H]3C4(C)C)c1)c1cc(-c3ccccn3)ncc12`, the TGI in experiment [1] is over 100 µM; in [2], over 100 µM; in [3], 40.3 µM; in experiment [4], over 100 µM; in [5], 83.4 µM; in experiment [6], over 100 µM. The TGI in [7] was over 91.2 µM; in [8] it was over 100 µM; in [9] it was over 100 µM; in [10] it was over 100 µM; in [11], over 100 µM; in [12], over 100 µM. In addition, in [10], the GI50 was 12.5 µM.
With `CC(=O)c1[nH]c(NC(C)C)c(C(=S)Nc2ccccc2)c1N`, the TGI is 39.7 µM in experiment [1]; over 100 µM in experiment [2]; over 100 µM in [3]; over 100 µM in experiment [4]; 92.4 µM in experiment [5]; 65.9 µM in experiment [6]. In addition, the TGI in experiment [7] is 60.4 µM; in experiment [8], 86.4 µM; in experiment [9], 94.3 µM; in experiment [10], over 100 µM; in [11] it was 50.3 µM; in experiment [12] it was 72.9 µM.
Consider `O=C(CN(C(=O)OC12CC3CC(CC(C3)C1)C2)C(=O)OC12CC3CC(CC(C3)C1)C2)Oc1ccc([N+](=O)[O-])cc1`, for which the TGI in experiment [1], in [2], in experiment [3], in experiment [4], in experiment [5] and in experiment [6] was over 100 µM throughout. Moreover, the TGI in experiment [7], in experiment [8], in experiment [9], in experiment [10], in [11] and in [12] was over 100 µM throughout.
Regarding `S=C(N/N=C(\c1ccccc1)c1ccccn1)NC1CCCCC1`, the TGI is over 100 µM in [1]; over 100 µM in [2]; 1.59 µM in experiment [3]; over 100 µM in [4]; over 100 µM in [5]; over 100 µM in experiment [6]. Further, the TGI in experiment [7], in experiment [8], in [9], in experiment [10], in [11] and in experiment [12] was over 100 µM each time.
As for `CSc1nc(C)cc(Nc2ccc(O)c(CN3CCOCC3)c2)n1`, the TGI in experiment [1], in experiment [2], in experiment [3], in [4], in experiment [5] and in experiment [6] was over 100 µM each time. Also, the TGI in [7], in experiment [8], in experiment [9], in [10], in experiment [11] and in experiment [12] was over 100 µM throughout.
On to `O=C(Cc1ccccc1F)NC1=C(Cl)C(=O)c2ccccc2C1=O`, for which the TGI is 7.41 µM in experiment [1]; 24.2 µM in experiment [2]; 6.25 µM in experiment [3]; 5.65 µM in experiment [4]; 2.49 µM in [5]; 15.1 µM in experiment [6]. In addition, the TGI in [7] amounted to 6.7 µM; in [8] it was 7.26 µM; in experiment [9], 15.7 µM; in [10], 19.5 µM; in experiment [11], 0.816 µM; in experiment [12] it was 7.36 µM.
With `CSC1(C)C(=O)Nc2c(OCc3ccccc3)cc([N+](=O)[O-])cc21` (stereo not given), the TGI in experiment [1], in [2], in experiment [3], in experiment [4], in experiment [5] and in experiment [6] was over 100 µM throughout. Moreover, the TGI is 31 µM in experiment [7]; over 100 µM in [8]; over 100 µM in experiment [9]; over 100 µM in experiment [10]; over 100 µM in [11]; over 100 µM in experiment [12].
For the molecule `CCCCCCCCCCCC(=O)OC[C@H](C[As](=O)(O)O)OC(=O)CCCCCCCCCCC`, the TGI was 10.5 µM in [1]; 31.7 µM in [2]; 29.3 µM in experiment [3]; 37.7 µM in experiment [4]; 3.85 µM in [5]; over 42.5 µM in experiment [6]. For the same molecule, the TGI in [7] is 38.8 µM; in experiment [8] it was 11.3 µM; in [9], 20.5 µM; in [10] it was 21.7 µM; in experiment [11], 5.68 µM; in experiment [12] it was over 100 µM.
Regarding `CCOC(=O)C(NC(=O)c1ccccc1)(Nc1ccc(S(=O)(=O)Nc2ncccn2)cc1)C(F)(F)F` (stereo not given), the TGI in [1], in experiment [2], in [3], in experiment [4], in [5] and in experiment [6] was over 100 µM in each case. In addition, the TGI in experiment [7], in [8], in [9], in experiment [10], in [11] and in [12] was over 100 µM in each case.
For `COCCN(CCNC(=O)c1cccc2c(N)c3cccc(C)c3nc12)CCOC`, the TGI is 2.7 µM in experiment [1]; 11.3 µM in experiment [2]; 33.7 µM in [3]; 6.38 µM in experiment [4]; over 57.7 µM in experiment [5]; 2.3 µM in [6]. Besides, the TGI in [7] was 6.15 µM; in experiment [8], 20.3 µM; in [9] it was 8.48 µM; in experiment [10] it was 10.2 µM; in experiment [11] it was 5.96 µM; in experiment [12] it was over 26.2 µM.

The values above are taken from PubChem BioAssay (NCI).
